Patent publication US20080057086A1, “COLON-TARGETED ORAL FORMULATIONS OF CYTIDINE ANALOGS” (PHARMION CORPORATION, priority 2006, published 2008)
Read-outs that look alike come from different tables or passages of the source.

What was measured:
[1] = test system: total hemoglobin, fetal hemoglobin and F cells; conditions: sickle cell patients, cited from earlier work
[2] = Excipient compatibility studies; assay type: physicochemical
human colonic tissue = assay: Permeation enhancement in human colonic strips; assay type: in vitro ADME; conditions: without enzymatic inhibition (FIGS. 3, 4)
Text: (§1) This model allows evaluation of the absorption potential of drugs and differences in drug absorption across the human jejunum, ileum, and colon and is based on Ungell et al. “Membrane Transport of Drugs in Different Regions of the Intestinal Tract of the Rat”, J. Pharm. Sci. 87:360-366, (1998) and Nejdfors et al. “Mucosal in vitro Permeability in the Intestinal Tract of the Pig, the Rat, and Man: Species and Region Related Differences”, Scand. J. Gastroenterol. 35:501-507, (2000). Permeation experiments were performed for 5-azacytidine in the jejunal, ileal, and colonic tissues originating from the same human donor. Post-mortem human whole intestine was obtained from the International Institute for the Advancement of Medicine (IIAM). Tissues were used within 24 hours of the organ's removal. Tissues were maintained in cold transport media before being stripped. The segments were cut along the mesenteric border, the underlying musculature was stripped off, and the epithelium was rinsed with ice cold normal saline. The stripped tissues were mounted within the vertical USSING chambers (Harvard Apparatus, Holliston, Mass.). In these studies, 5-azacytidine permeability was measured in both absolute rate and relative to atenolol (internal control). In all cases the net apparent permeability was assessed in the mucosal to serosal direction only.

[3] = test system: fetal hemoglobin production; conditions: baboons; IV, SC or PO route; PO needed co-administration of THU; 0.25 to 8 mg/kg/d with 20 mg/kg/d THU; cited from earlier work
total hemoglobin = conditions: β^0-thalassemic patient, cited from earlier work
[4] = test system: human intestinal tissue (jejunum, ileum, colon); assay: Permeability in viable human intestinal strips (USSING chambers), mucosal to serosal; assay type: in vitro ADME
Text: as §1

[5] = Caco 2 monolayer permeability of 5-azacytidine with and without excipients; assay type: in vitro ADME; conditions: human
Protocol: The Caco-2 cells are an intestinal epithelial cell line (human colon adenocarcinoma established from the primary colon tumor (adenocarcinoma)) Monolayers of Caco-2 cells are used to classify the intestinal absorption potential of a drug candidate molecule. The assay was carried out in accordance with P. Artursson and J. Karlsson, “Correlation between Oral Drug Absorption in Humans and Apparent Drug Permeability Coefficients in Human Intestinal Epithelial (Caco-2) Cells”, Biochem. Biophys. Res. Commun. 175, 880 (1991).
Briefly, Caco-2 cells were grown to confluence on collagen-coated, microporous polycarbonate in 12-well plates. For the assay buffer, Dulbecco's Phosphate Buffered Saline at pH 7.4 was used. […] The test compound was then dosed on either the apical or basolateral side of the Caco-2 monolayer, and flux across the monolayer was determined both one and two hours after dosing. Results were compared to control high permeability compounds metoprolol and antipyrine and low permeability compounds atenolol and ranitidine, and were expressed as Papp (apparent permeability) compared to reference compound standards. Integrity of the monolayers was determine both before and after testing by measuring the […] electrical resistance (TEER) value. Apparent permeability is calculated as (dCr/dt)×Vr/(A×C0) where dCr/dt is the slope of the cumulative concentration in the receiver compartment versus time in micromolar per second, Vr is the volume of the receiver compartment in cubic centimeters, A is the area of the cell monolayer, and C0 is the measured initial donor concentration in micromolar.

leukemic mice = conditions: cited from earlier work
[6] = PO administration with THU versus without, bioassay

Nc1ncn([C@@H]2O[C@H](CO)[C@@H](O)[C@H]2O)c(=O)n1 [5-azacytidine, 4-amino-1-β-D-ribofuranosyl-1,3,5-triazin-2(1H)-one]
Clinical response, SC without THU versus PO with THU ([1]; 2 mg/kg/d SC without THU versus 0.2 mg/kg/d PO with 200 mg/d THU): comparable clinical response | Clinical response (total hemoglobin, fetal hemoglobin and F cell levels) ([1]; 5-azacytidine co-administered with THU): good clinical response | F reticulocyte production ([1]; oral 5-azacytidine 2 mg/kg/d alone): did not result in increased F reticulocyte production | Excipient compatibility ([2]; each excipient of the Example 3 formulation (Table 2)): compatible with each excipient | Excipient compatibility ([2]; each excipient of the Example 4 formulation (Table 3)): compatible with each excipient | Excipient compatibility ([2]; each excipient of the Example 6 formulation (Table 7)): compatible with each excipient | Excipient compatibility ([2]; each excipient of the Example 7 formulation (Table 8)): compatible with each excipient | Excipient compatibility ([2]; each excipient of the Example 8 formulation (Table 9)): compatible with each excipient | Excipient compatibility ([2]; each excipient of the Example 9 formulation (Table 10)): compatible with each excipient | Permeability with permeation enhancer (human colonic tissue; various concentrations of Labrafil): did not appear to affect | Permeability with permeation enhancer (human colonic tissue; various concentrations of TPGS): trend toward greater permeability with increasing levels of TPGS | Fetal hemoglobin production [3]: induce fetal hemoglobin production | Hemoglobin levels (total hemoglobin; 2 mg/d tid PO with co-administration of THU): did not result in increased hemoglobin levels | Hemoglobin levels (total hemoglobin; 2 mg/kg/d IV): measurable increase | Absolute mucosal to serosal permeability by intestinal region ([4]; colon relative to jejunum and ileum, multiple donors (FIG. 1)): greatest in the colon | Effect of enzymatic inhibitors on absolute permeability ([4]; with ketoconazole and THU, increase maximal in jejunum and ileum, relatively small in colon): increased the absolute permeability in all GI tract regions | Papp at 1000 micromolar ([5]; Caco-2, pH 7.4, with Carboxymethyl Cellulose 0.1%): 0.26 ± 0.09 ×10⁻⁶ cm/s | Papp at 1000 micromolar ([5]; Caco-2, pH 7.4, with Chitosan 0.1%): 0.15 ± 0.01 ×10⁻⁶ cm/s | Papp at 1000 micromolar ([5]; Caco-2, pH 7.4, with Labrafil 0.001%): 0.27 ± 0.02 ×10⁻⁶ cm/s | Papp at 1000 micromolar ([5]; Caco-2, pH 7.4, with Labrafil 0.01%): 0.23 ± 0.04 ×10⁻⁶ cm/s | Papp at 1000 micromolar ([5]; Caco-2, pH 7.4, with Labrafil 0.05%): 0.38 ± 0.13 ×10⁻⁶ cm/s | Papp at 1000 micromolar ([5]; Caco-2, pH 7.4, with Labrafil 0.1%): 0.34 ± 0.002 ×10⁻⁶ cm/s | Papp at 1000 micromolar ([5]; Caco-2, pH 7.4, with Poloxamer F127 0.1%): 0.13 ± 0.02 ×10⁻⁶ cm/s | Papp at 1000 micromolar ([5]; Caco-2, pH 7.4, with Sodium Laurate 0.001%): 0.19 ± 0.04 ×10⁻⁶ cm/s | Papp at 1000 micromolar ([5]; Caco-2, pH 7.4, with Sodium Laurate 0.01%): 0.19 ± 0.02 ×10⁻⁶ cm/s | Papp at 1000 micromolar ([5]; Caco-2, pH 7.4, with Sodium Laurate 0.05%): 0.17 ± 0.03 ×10⁻⁶ cm/s | Papp at 1000 micromolar ([5]; Caco-2, pH 7.4, with Sodium Laurate 0.1%, high permeability due to toxic effects of sodium laurate on Caco 2 cells): 15.8 ± 1.77 ×10⁻⁶ cm/s | Papp at 1000 micromolar ([5]; Caco-2, pH 7.4, with Solutol 0.1%): 0.26 ± 0.04 ×10⁻⁶ cm/s | Papp at 1000 micromolar ([5]; Caco-2, pH 7.4, with TPGS 0.001%): 0.33 ± 0.08 ×10⁻⁶ cm/s | Papp at 1000 micromolar ([5]; Caco-2, pH 7.4, with TPGS 0.01%): 0.3 ± 0.05 ×10⁻⁶ cm/s | Papp at 1000 micromolar ([5]; Caco-2, pH 7.4, with TPGS 0.05%): 0.45 ± 0.18 ×10⁻⁶ cm/s | Papp at 1000 micromolar ([5]; Caco-2, pH 7.4, with TPGS 0.1%): 0.38 ± 0.09 ×10⁻⁶ cm/s | Papp A→B at 1000 micromolar ([5]; Caco-2, pH 7.4, read-out: Papp (apical to basolateral permeability)): 0.15 ± 0.02 ×10⁻⁶ cm/s | Effect of THU on clearance or degradation of 5-azacytidine (leukemic mice; IP administration with THU, bioassay): little effect | Cmax (leukemic mice; [6]): significantly increased | t1/2 (leukemic mice; [6]): significantly increased | Efficacy with co-administration of THU (leukemic mice; PO with THU, all doses except the highest chronic dose which was toxic): increased efficacy | Effect of THU on pharmacodynamic effects of 5-azacytidine (leukemic mice; acute and chronic IP dosing with THU, except at the highest chronic dose which was toxic): did not influence
